Publication PMC5094555, “Human Mitochondrial Cytochrome b Variants Studied in Yeast: Not All Are Silent Polymorphisms” (Human Mutation, 2016)
pIC50: −log10 of the molar value.

What was measured:
[1] = system: yeast complex III, cytochrome b p.His141Tyr; design: method as in Vallières et al. 2013; settings: ref Vallières et al. 2013; cited from earlier work
[2] = system: yeast complex III, cytochrome b p.His141Phe; design: method as in Fisher and Meunier 2005; settings: ref Fisher and Meunier 2005; cited from earlier work
[3] = system: yeast AD1-9 strains (wild type and cytochrome b mutants); test: Respiratory growth assay with increasing concentration of drug; assay type: cell-based, Saccharomyces cerevisiae
Description: Diploids were used in the experiments, except for monitoring the sensitivity of respiratory growth to atovaquone, where the AD1‐9 series was used.
Yeast strains were grown in 5 ml of YPEth medium with increasing concentration of drug. Cultures were inoculated from 1‐day‐old cultures on YPG to an OD600 nm of 0.2 and incubated at 28°C with vigorous shaking to maintain good aeration. Cell densities measured as OD600 nm were estimated 2 or 3 days after inoculation.

[4] = system: malaria parasite complex III; design: method as in Biagini et al., 2008; settings: atovaquone; malaria parasite enzyme; ref Biagini et al., 2008; cited from earlier work
[5] = system: yeast complex III, cytochrome b CysCysVal 133-135 ValLeuPro; design: method as in Fisher and Meunier 2005; settings: ref Fisher and Meunier 2005; cited from earlier work
[6] = target: yeast complex III, cytochrome b p.Ser172Gly (Saccharomyces cerevisiae, UniProt P00163, S172G); assay type: biochemical; settings: this work
Description: Yeast mitochondria were prepared as in Lemaire and Dujardin (2008). Briefly, yeast grown in YPGal medium were harvested at mid‐log phase. Protoplasts were obtained by enzymatic digestion of the cell wall using zymolyase in an osmotic protection buffer. Mitochondria were then prepared by differential centrifugation following osmotic shock of the protoplasts. Mitochondrial samples were aliquoted and stored at −80°C. Concentration of complex III in the mitochondrial samples was determined from dithionite‐reduced optical spectra, using ε = 28.5 mM^−1/cm at 562 − 575 nm. Decylubiquinol‐cytochrome c reductase activities were determined at room temperature by measuring the reduction of cytochrome c (final concentration of 20 μM) at 550 nm versus 540 nm over 1‐min time course in 10 mM potassium phosphate pH 7, 0.01% (w/v) lauryl‐maltoside and 1 mM KCN. Mitochondria were added to obtain a final concentration of 5–30 nM of complex III. […] Initial rates were measured as a function of the decylubiquinol concentration. […]
Cytochrome c reduction activity was measured as described above in the presence of increasing concentrations of inhibitors (six to 10 different concentrations). […] The midpoint inhibition concentrations (IC50) were determined from the titrations and the IC50 values were normalized by the concentration of complex III.

[7] = target: T1, bovine complex III (Bos taurus, UniProt P00157); design: method as in Vallières et al., 2013; settings: atovaquone; per nM complex III; bovine enzyme; ref Vallières et al., 2013; read-out: IC50 (midpoint inhibition concentration); cited from earlier work
T1 construct: catalytic activity of bovine and yeast complex III, using purified mitochondria; from tissue

[8] = target: T2, yeast complex III (wild type) (Saccharomyces cerevisiae, UniProt P00163); design: method as in Vallières et al., 2013; settings: atovaquone; per nM complex III; yeast enzyme; ref Vallières et al., 2013; read-out: IC50 (midpoint inhibition concentration); cited from earlier work
T2 construct: Mitochondria were added to obtain a final concentration of 5–30 nM of complex III; endogenous in cells; host or cells: mitochondria prepared from S. cerevisiae grown in YPGal (diploid strains)

O=C1C(O)=C([C@H]2CC[C@H](c3ccc(Cl)cc3)CC2)C(=O)c2ccccc21 [atovaquone]
atovaquone sensitivity (IC50 mutant/IC50 control) [1]: 0.5 | atovaquone sensitivity (IC50 mutant/IC50 control) [2]: 0.4 | Sensitivity of respiratory growth to atovaquone ([3]; strain HS-p.Ser172Asn (humanised Qo site), versus control strain (Fig. 3C)): inhibited at slightly higher doses of atovaquone than the control strain | Sensitivity of respiratory growth to atovaquone ([3]; strain HS-p.Ser172Asn versus HS-p.Ser172Asp (Fig. 3C)): more sensitive | Sensitivity of respiratory growth to atovaquone ([3]; strain HS-p.Ser172Asp (humanised Qo site), versus control strain (Fig. 3C)): inhibited at slightly higher doses of atovaquone than the control strain | Sensitivity of respiratory growth to atovaquone ([3]; strain p.Ser172Asn, compared with p.Ser172Asp and p.Leu150Phe (Fig. 3B)): increased sensitivity compared with p.Ser172Asp | Sensitivity of respiratory growth to atovaquone ([3]; strain p.Ser172Gly, compared with p.Ser172Asp and p.Leu150Phe (Fig. 3B)): increased sensitivity compared with p.Ser172Asp | Sensitivity of respiratory growth to atovaquone ([3]; wt strain, compared with p.Ser172Asp and p.Leu150Phe (Fig. 3B)): increased sensitivity compared with p.Ser172Asp | pIC50 [4]: ~8.52 | atovaquone sensitivity (IC50 mutant/IC50 control) [5]: 3.5 | atovaquone sensitivity (IC50 mutant/IC50 control) [6]: 1.1 | IC50 [7]: 75 nM | IC50 [8]: 4 nM
